*1 amine or outer side, *2 acyl side, *3 side chain or, on linkers, in order; H or OH if unused. Where a SMILES comes first, the peptide text is derived from it. Bridges are numbered along the chain shown (N, C = ends). Roman numbers before positions name the chains, in order. [ ]: non-standard residue; d: D form. X1 = O=C(CCOCCOCCOCCOCCOCCOCCOCCOCCOCCOCCOCCOCCOCCOCCOCCOCCOCCOCCOCCOCCOCCOCCOCCOCCn1cc(CCC(=O)[*:2])nn1)[*:1]; X3 = O=C(CCc1cn(CCOCCOCCOCCOCCOCCOCCOCCOCCOCCOCCOCCOCCOCCOCCOCCOCCOCCOCCOCCOCCOCCOCCOCCOCCC(=O)[*:2])nn1)[*:1]; TATB = O=C(C[*:1])N1CN(C(=O)C[*:2])CN(C(=O)C[*:3])C1; X2 = C(c1nc(C[*:2])nc(C[*:3])n1)[*:1]; hArg = N=C(N)NCCCC[C@H](N)C(=O)O; tBuAla = CC(C)(C)C[C@H](N)C(=O)O; Agb = N=C(N)NCC[C@H](N)C(=O)O
Tests used:
[1] = system: SARS-CoV-2 pseudotyped HIV-1 virions; details: 72 h
SARS-CoV-2 [2] = details: 3 h
SARS-CoV-2 [3] = details: hamster, in vivo
[4] = system: SARS-CoV-2 pseudotyped HIV-1 virions, B.1.427 (California)
[5] = system: SARS-CoV-2 pseudotyped HIV-1 virions, B.1.617.2 (Delta)
[6] = system: SARS-CoV-2 pseudotyped HIV-1 virions, B.1.351 (Beta)
[7] = system: SARS-CoV-2 pseudotyped HIV-1 virions, P.1 (Gamma)
[8] = system: SARS-CoV-2 pseudotyped HIV-1 virions, B.1.1.7 (Alpha)

CC(=O)N[C@H]1CSCc2nc3nc(n2)CSC[C@H](NC(=O)[C@H]([C@@H](C)O)NC(=O)[C@@H](C)NC(=O)[C@H](CCNC(=N)N)NC(=O)CNC(=O)[C@H](C)NC(=O)[C@H](C(C)C)NC(=O)[C@H](Cc2ccc(O)cc2)NC(=O)[C@@H]2CCCN2C1=O)C(=O)N[C@@H](CC(C)C)C(=O)N[C@@H](CC(C)(C)C)C(=O)N[C@H](C(=O)N[C@@H](CCCCNC(=O)CCOCCOCCOCCOCCOCCOCCOCCOCCOCCOCCOCCOCCOCCOCCOCCOCCOCCOCCOCCOCCOCCOCCOCCOCCn1cc(CCC(=O)NCCCC[C@H](NC(=O)[C@@H]2CSCc4nc5nc(n4)CSC[C@H](NC(C)=O)C(=O)N4CCC[C@H]4C(=O)N[C@@H](Cc4ccc(O)cc4)C(=O)N[C@@H](C(C)C)C(=O)N[C@@H](C)C(=O)NCC(=O)N[C@@H](CCNC(=N)N)C(=O)N[C@H](C)C(=O)N[C@@H]([C@@H](C)O)C(=O)N[C@@H](CSC5)C(=O)N[C@@H](CC(C)C)C(=O)N[C@@H](CC(C)(C)C)C(=O)N2)C(N)=O)nn1)C(N)=O)CSC3 [BCY17196] (I: Ac-CPYVAG[Agb][dA]TCL[tBuAla]CK-NH2 / II: Ac-CPYVAG[Agb][dA]TCL[tBuAla]CK-NH2; linker I:1-I:10-I:13, II:1-II:10-II:13 via X2; linker I:14-II:14 via X1)
IC50 [1]: 15300 nM

CC[C@H](C)[C@@H]1NC(=O)[C@H](CCSC)NC(=O)[C@@H]2CSCC(=O)N3CN(CN(C3)C(=O)CSC[C@@H](C(=O)N[C@@H](CCCCNC(=O)CCOCCOCCOCCOCCOCCOCCOCCOCCOCCOCCOCCOCCOCCOCCOCCOCCOCCOCCOCCOCCOCCOCCOCCOCCn3cc(CCC(=O)NCCCC[C@H](NC(=O)[C@@H]4CSCc5nc6nc(n5)CSC[C@H](NC(C)=O)C(=O)N5CCC[C@H]5C(=O)N[C@@H](Cc5ccc(O)cc5)C(=O)N[C@@H](C(C)C)C(=O)N[C@@H](C)C(=O)NCC(=O)N[C@@H](CCNC(=N)N)C(=O)N[C@H](C)C(=O)N[C@@H]([C@@H](C)O)C(=O)N[C@@H](CSC6)C(=O)N[C@@H](CC(C)C)C(=O)N[C@@H](CC(C)(C)C)C(=O)N4)C(N)=O)nn3)C(N)=O)NC(=O)[C@H](C)NC1=O)C(=O)CSC[C@H](NC(C)=O)C(=O)N[C@@H]([C@@H](C)CC)C(=O)N1CCC[C@H]1C(=O)N[C@@H](CC(C)C)C(=O)N[C@@H](CC(=O)O)C(=O)N[C@@H](Cc1c[nH]c3ccccc13)C(=O)N[C@@H]([C@@H](C)O)C(=O)N2 [BCY18656]
IC50 (SARS-CoV-2 [2]): 0.314 nM | viral load of SARS-CoV-2 (SARS-CoV-2 [3]): reduces the viral load

CC(=O)N[C@@H](C)C(=O)N[C@H]1CSCC(=O)N2CN3CN(C2)C(=O)CSC[C@H](NC(=O)[C@H](C(C)C)NC(=O)[C@@H]2CCCN2C(=O)[C@H](CC(N)=O)NC(=O)[C@H](CC(=O)O)NC(=O)[C@@H]2CCCN2C(=O)[C@H](CO)NC(=O)[C@H](C)NC1=O)C(=O)N[C@@H](CCCNC(=N)N)C(=O)N[C@@H](Cc1ccccc1)C(=O)N[C@@H](Cc1ccc(O)cc1)C(=O)N[C@H](C(=O)N[C@@H](C)C(=O)N[C@@H](CCCCNC(=O)CCc1cn(CCOCCOCCOCCOCCOCCOCCOCCOCCOCCOCCOCCOCCOCCOCCOCCOCCOCCOCCOCCOCCOCCOCCOCCOCCC(=O)NCCCC[C@H](NC(=O)[C@@H]2CSCc4nc5nc(n4)CSC[C@H](NC(C)=O)C(=O)N4CCC[C@H]4C(=O)N[C@@H](Cc4ccc(O)cc4)C(=O)N[C@@H](C(C)C)C(=O)N[C@@H](C)C(=O)NCC(=O)N[C@@H](CCNC(=N)N)C(=O)N[C@H](C)C(=O)N[C@@H]([C@@H](C)O)C(=O)N[C@@H](CSC5)C(=O)N[C@@H](CC(C)C)C(=O)N[C@@H](CC(C)(C)C)C(=O)N2)C(N)=O)nn1)C(N)=O)CSCC3=O [BCY17191] (I: Ac-ACASPDNPVCRFYCAK-NH2 / II: Ac-CPYVAG[Agb][dA]TCL[tBuAla]CK-NH2; linker I:2-I:10-I:14 via TATB; linker I:16-II:14 via X3; linker II:1-II:10-II:13 via X2)
IC50 [1]: 10.6 nM

CC(=O)N[C@H]1CSCC(=O)N2CN3CN(C2)C(=O)CSC[C@H](NC(=O)[C@H](C(C)C)NC(=O)[C@@H]2CCCN2C(=O)[C@H](CC(N)=O)NC(=O)[C@H](CC(=O)O)NC(=O)[C@@H]2CCCN2C(=O)[C@H](CC(N)=O)NC(=O)[C@H](C)NC1=O)C(=O)N[C@@H](CCCNC(=N)N)C(=O)N[C@@H](Cc1ccccc1)C(=O)N[C@@H](Cc1ccc(O)cc1)C(=O)N[C@H](C(=O)N[C@@H](CCCCNC(=O)CCOCCOCCOCCOCCOCCOCCOCCOCCOCCOCCOCCOCCOCCOCCOCCOCCOCCOCCOCCOCCOCCOCCOCCOCCn1cc(CCC(=O)NCCCC[C@H](NC(=O)[C@@H]2CSCc4nc5nc(n4)CSC[C@H](NC(C)=O)C(=O)N4CCC[C@H]4C(=O)N[C@@H](Cc4ccc(O)cc4)C(=O)N[C@@H](C(C)C)C(=O)N[C@@H](C)C(=O)NCC(=O)N[C@@H](CCCCNC(=N)N)C(=O)N[C@H](C)C(=O)N[C@@H]([C@@H](C)O)C(=O)N[C@@H](CSC5)C(=O)N[C@@H](CC(C)C)C(=O)N[C@@H](CC(C)(C)C)C(=O)N2)C(N)=O)nn1)C(N)=O)CSCC3=O [BCY18786] (I: Ac-CANPDNPVCRFYCK-NH2 / II: Ac-CPYVAG[hArg][dA]TCL[tBuAla]CK-NH2; linker I:1-I:9-I:13 via TATB; linker I:14-II:14 via X1; linker II:1-II:10-II:13 via X2)
IC50 [1]: 0.2 nM | IC50 [4]: 93 nM | IC50 (SARS-CoV-2 [2]): 246 nM | IC50 [5]: 437 nM | IC50 [6]: 272 nM | IC50 [7]: 140 nM | IC50 [8]: 6 nM
